Entries after “also recorded” stand apart in the source; their conditions may differ. Like-named read-outs stand apart in the source and are kept apart here. No end group written: not given here.
How the values were obtained:
AF64A-treated rats [1] = settings: rat, in vivo; for Correct responses, % Learning test / Correct responses, % Retention test: po
AF64A-treated rats [2] = assay: Two-way shuttle box avoidance, learning and retention tests (Example 3); type: in vivo, rat
mouse = assay: Mouse tail suspension test; settings: in vivo
Description: The combination of cognition-enhancing and antidepressant effect in the one and the same compound might be of additional therapeutic advantage.

Antihypertensive effect = settings: in vivo
cerebellar granule cells = assay: βAP 25-35 toxicity assay in mature cerebellar granule cell cultures (Example 5); type: cell-based, rat; settings: for protective effect against the toxicity of βAP 25-35 (in words): mature cultures, 8 DIV; for protection of neurons against βAP: compound at 25 μM; for increase of the amount of living CGC, compound alone: concentration range 25-200 μM
Protocol: FIG. 8. […] The difference in numbers of living neurons before and after 4 days of treatment were determined. The amount of viable neurons is expressed as mean (%) above viable in preliminary photography of the same place. Experiments were repeated 2-3 times (n=12-18). For graphical presentation, average data from representative experiments were converted to percentages of control groups viability. Results were expressed as a percentage of survival cells to compare with control ±SEM and were analyzed by a statistical test (ANOVA).
Cerebellar granule cells (CGC) were prepared from the postnatal rats (7-8 days old) by the following procedure based on the generally accepted methods (V. Gallo et al., J. Neurosci. 7:2203-2213, 1987). The pieces of cerebellum were digested with 0,25 mg/ml trypsin for 25 min. at 37° C. and incubated for 5 min. in 0.1% soybean trypsin inhibitor. After washing, cells were dissociated by triturating. Following two centrifugation-resuspension steps, the cells were plated at a density of 2.5-[…] cells per ml on polylysine-coated 24-well plates (Corning) and maintained at 37° C. in a humidified incubator with 5% CO2/95% room air. The medium was composed of Eagle's minimal essential medium and fetal calf serum (10%) supplemented with 20 mM potassium chloride, 10 mM glucose, 2 mM glutainine, 50 μg/ml gentamycin sulfate. Cytosine arabinoside (10 μM) was added 24-48 h later to prevent the replication of non-neuronal cells.
The βAP 25-35 (Bachem) was dissolved by sonication in sterilized distilled water at a concentration of 1 mM. […]
Neuronal viability was evaluated by morphometric cell counting using the presence of neurites and smooth, round cell bodies as criteria of survival. The cells were examined under the phase-contrast microscope Axiovert 25C with videocamera and Software miroMedia PCTV VideoCap program for image scanning and photography. Cell survival was quantified by counting the number of viable neurons in premarked microscope fields prior to, and 4 days after the exposure. The difference in numbers of living neurons before and after 4 days of treatment was determined.
For each experiment, we used 4-6 separate wells of a 24-well multiwell plate for control (with 0.05% DMSO)and for each concentration of compound or composition of compound with βAP. Each well equals one observation, (average of 25 cells per microscope field). Experiments are repeated 2-3 times (n=12-18). For graphical presentation, average data from representative experiments were expressed as a percentage of survival cells in comparison with control ±SEM and analyzed by ANOVA and Student t-test.

AF64A-treated rats [3] = assay: Morris water maze test; type: in vivo, rat; settings: 0.3 mg/kg daily orally; day 1 and day 5
Protocol: FIGS. 7A and 7B Average swim latency made by rats, when trained 1 (A) and […] to find a platform in Morris water maze test. […] Results were estimated as time required for rat felt into a water pool to reach a platform;**−[…], ***−p<0.001 vs. AF64A-treated group, where p is the significance level (post hoc ANOVA).
The test was started 2 days after the last injection of tested compounds and was performed daily for the period from 3 to 9 day. Round swimming pool (1,8 m diameter and 0,45 m high) with 22° C. water was placed in the center of the room. The platform was located 1 cm below the surface of the water. Starting points for the swims were at the cardinal compass points (N, S, E, W), which were selected in a semi-random fashion for each rat on each trial.
Each experimental group, i.e., control, AF64A-treated groups and groups for each concentration of the tested compounds, contained 9-11 rats. Results were estimated as time required for rat felt into a water pool to reach a platform (a sum of two trials from different position every day). Data were analyzed as the mean±SEM. (ANOVA followed by post hoc comparisons).

[4] = test system: Cerebellar granule cells (CGC); assay: Survival of cerebellar granule cells with amyloid beta-protein (Example 4); type: cell-based, rat; parameters: dose or concentration left out as unconfirmed; settings: 72 hr
Protocol: Cerebellar granule cells (CGC) obtained from brains of 8-day rat pups were maintained in culture. The amyloid beta-protein (βAP) and/or NAS derivative (DNAS-18) were added to CGC for a period of 72 hr. Vehicle solution was added to CGC in the control experiments. Survival of CGS was assessed by lactate dehydrogenase method and by visual counting of living neurons.

rats = assay: Observation of sedative effect during oral treatment
[5] = in rats; Oxenkrug et al. 1994; cited from earlier work
[6] = 3 mg/kg p.o. for 12 days after AF64A i.c.v. 3 nmol/ventricle

Row | Compound | cognitive performance of AF64A-treated rats in active avoidance and in water-maze tests (summary) (AF64A-treated rats [1]) | performance in learning paradigm of the active avoidance test (in words) (AF64A-treated rats [1]) | performance in retention paradigm of the active avoidance test (in words) (AF64A-treated rats [1]) | Correct responses, % Learning test (AF64A-treated rats [1]; 3 mg/kg) [%] | Correct responses, % Retention test (AF64A-treated rats [1]; 3 mg/kg) [%] | antidepressant-like activity (decreasing the duration of immobility) (mouse) | antihypertensive effect (Antihypertensive effect) | protective effect against the toxicity of βAP 25-35 (in words) (cerebellar granule cells; 4 days) | melting point [°C] | Correct responses, % Learning test (AF64A-treated rats [1]; 0.3 mg/kg) [%] | Correct responses, % Retention test (AF64A-treated rats [1]; 0.3 mg/kg) [%] | Correct responses, % Learning test (AF64A-treated rats [1]; 1 mg/kg) [%] | Correct responses, % Retention test (AF64A-treated rats [1]; 1 mg/kg) [%] | response time (swim latency to platform) (AF64A-treated rats [3]) | protection of neurons against βAP (cerebellar granule cells; 25 μM βAP) [%] | sedative effect (rats; 0.3 mg/kg orally daily) | comparative efficacy in preventing βAP toxicity (cerebellar granule cells) | increase of the amount of living CGC, compound alone (cerebellar granule cells) | other results
1 | CCC(=O)NCCc1c[nH]c2ccc(OCc3ccccc3)cc12 [CA-15, N-[2-(5-Benzyloxyindol-3-yl)ethyl]propanamide] | improve cognitive performance | strong tendency (although not reaching the level of statistical significance) towards the improvement | improved the performance | 61.4 ± 7.4 | 68.0 ± 8.4 | antidepressant-like effects | antihypertensive | exerted a neuroprotective effect; also recorded: Protective effect | 110 to 112 | – | – | – | – | – | – | – | – | – | duration of cognition-enhancing effect in retention test after the learning trials (AF64A-treated rats [2]; 3 mg/kg p.o. for 12 days after AF64A): ≥ 10 days; number of correct responses, learning test (in words) (AF64A-treated rats [2]; [6]): almost completely restored; number of correct responses, retention test (in words) (AF64A-treated rats [2]; [6]): almost completely restored
2 | CCCC(=O)NCCc1c[nH]c2ccc(OCc3ccccc3)cc12 [CA-18, N-[2-(5-Benzyloxyindol-3-yl)ethyl] butanamide] | improve cognitive performance | completely restored; also recorded: strong tendency (although not reaching the level of statistical significance) towards the improvement | – | – | – | antidepressant-like effects | antihypertensive | exerted a neuroprotective effect | 112 to 114 | 84.0 ± 5.4 | 82.7 ± 5.0 | 50.0 ± 8.8 | 48.1 ± 9.8 | decreased the response time | 93 | did not induced sedation | – | – | antidepressant-like activity, comparison CA-18 with CA-15 (mouse): more pronounced; viability of neurons, compound added to βAP [4]: 98±4 % of control; increase of viability of CGC neurons, compound alone ([4]; mean±S.E.): 18±3 % of control; sedative effect (rats; 1 mg/kg orally daily): did not induced sedation
3 | COc1ccc2[nH]cc(CCNC(C)=O)c2c1 [Melatonin, reference compound] | improve cognitive performance | completely restored; also recorded: significant but somewhat less pronounced | completely restored; also recorded: significant but somewhat less pronounced | 75.4 ± 7.0 | 72.2 ± 5.8 | – | – | Protective effect | – | 79.0 ± 6.0 | 83.2 ± 3.2 | – | – | decreased the response time | 90 | did not induced sedation | less effective | 3-10 % of control | protective effect against the toxicity of βAP 25-35 (in words) (cerebellar granule cells; 4 days, listed as melatonin): exerted a neuroprotective effect; onset of sedative effect (rats; 3 mg/kg orally daily): 3-4 days of treatment; sedative effect (rats; 3 mg/kg orally daily): unspecified sedative effect
4 | CC(=O)NCCc1c[nH]c2ccc(O)cc12 [NAS, N-acetylserotonin] | improve cognitive performance | improved the performance | not in retention | – | – | – | – | exerted a neuroprotective effect; also recorded: Protective effect | – | – | – | 65.4 ± 8.8 | 56.0 ± 9.2 | – | – | – | strongest | 16-28 % of control | conversion of NAS into melatonin [5]: rapidly converted into melatonin; viable neurons, co-incubation with βAP (cerebellar granule cells; 25 μM compound): 101±5 % of control
5 | GSNKGAIIGLM [βAP, reference compound] | – | – | – | – | – | – | – | – | – | – | – | – | – | – | – | – | – | – | viability of CGC neurons with βAP alone ([4]; βAP, mean±S.E.): 56±8 % of control; viability of neurons exposed to βAP alone (cerebellar granule cells; 25 μM βAP, 4 days, mean ±SEM): 58±7 % of control
